Measured values published in patent US12605459B2, “Protein-drug conjugates comprising camptothecin analogs and methods of use thereof” (priority 2020, dated 2026).
Where two headings read alike, the source gives them in different places. Non-standard residues stand in square brackets, D forms with d. Residues, ends and D or L forms follow the SMILES beside them. *: point of attachment. Dolaproine = CO[C@@H]([C@@H]1CCCN1)[C@@H](C)C(=O)O; Dil = CC[C@H](C)[C@H](NC)[C@@H](CC(=O)O)OC; X1 = C[C@@H](N*)[C@@H](O)c1ccccc1; NMeV = CN[C@H](C(=O)O)C(C)C

How the values were obtained:
HCT-15 = assay: cells; assay type: cell-based
NCI-H1975 cells = assay: In vitro cytotoxicity assay in tumor lines (CellTiter-Glo 2.0), NCI-H1975; assay type: cell-based, human; details: six days; for IC50: concentrations corrected for DAR
Method: (§1) To test the ability of anti-HER2 or anti-STEAP2 antibody drug conjugates (ADCs) of the present disclosure to kill human cell lines, an in vitro cytotoxicity assay was performed. In vitro cytotoxicity of the ADCs, isotype control ADCs, and reference free payloads were evaluated using the CellTiter-Glo 2.0 Assay Kit (Promega, Cat #g9243), in which the quantity of ATP present is used to determine the number of viable cells in culture.
(§2) For the assay, Calu-3, SK-BR-3, NCI-H1975, C42, or C42/STEAP2 KO (knockout) cells were seeded at 1000 cells/well in poly-D-lysine coated white 96 well Biocoat plates (Corning #356693) in complete growth medium and grown overnight at 37° C. in 5% CO2. Three-fold serial dilutions of anti-HER2 ADCs or isotype control ADCs were prepared in dilution media (Optimem+0.1% BSA) and added to cells at final concentrations ranging from 100 nM to 0.015 nM (concentrations were corrected for the DAR (drug antibody ratio) and dosed based on the effective payload concentration). Three-fold serial dilutions of free payloads were prepared in 100% DMSO, transferred to fresh dilution media, and then added to the cells at a final constant DMSO concentration of 0.2% and final payload concentrations ranging from 100 nM to 0.015 nM. The last well in each dilution series (untreated wells) served as blank controls containing only the media (ADCs) or media plus 0.2% DMSO (payloads) and was plotted as a continuation of the 3-fold serial dilution. Six days later, 100 μL of CellTiter glo 2.0 was added to each well, plates were mixed for 2 minutes on an orbital shaker, and plates were incubated at room temperature for 10 minutes. Relative light units (RLUs) were measured on an Envision luminometer (PerkinElmer), and cell viability was expressed as a percentage of the untreated (100% viable) cells. IC50 values were determined using a four-parameter logistic equation over a 10-point dose response curve (GraphPad Prism). The maximum % kill was also determined for each test article as follows: 100—minimum percent viability.

[1] = system: SK-BR-3, Calu-3 and NCI-H1975 cells; assay: In vitro cytotoxicity assay, statements pooled over several tested lines (SK-BR-3, Calu-3, NCI-H1975); assay type: cell-based, human; details: all tested cells; units printed with the values (pM, nM)
Method: as §1
For the assay, Calu-3, SK-BR-3, NCI-H1975, C42, or C42/STEAP2 KO (knockout) cells were seeded at 1000 cells/well in poly-D-lysine coated white 96 well Biocoat plates (Corning #356693) in complete growth medium and grown overnight at 37° C. in 5% CO2. Three-fold serial dilutions of anti-HER2 ADCs or isotype control ADCs were prepared in dilution media (Optimem+0.1% BSA) and added to cells at final concentrations ranging from 100 nM to 0.015 nM (concentrations were corrected for the DAR (drug antibody ratio) and dosed based on the effective payload concentration). […] Relative light units (RLUs) were measured on an Envision luminometer (PerkinElmer), and cell viability was expressed as a percentage of the untreated (100% viable) cells. IC50 values were determined using a four-parameter logistic equation over a 10-point dose response curve (GraphPad Prism). The maximum % kill was also determined for each test article as follows: 100—minimum percent viability.

SK-BR-3 cells = assay type: cell-based, human; details: six days; for IC50: concentrations corrected for DAR
Method: as §1, §2

Calu-3 cells = assay type: cell-based, human; details: Table 27 (second experiment), six days
Method: as §1, §2

C4-2/STEAP2 KO cells = assay: In vitro cytotoxicity assay in tumor lines (CellTiter-Glo 2.0), C4-2/STEAP2 KO; assay type: cell-based, human
Method: The last well in each dilution series (untreated wells) served as blank controls containing only the media (ADCs) or media plus 0.2% DMSO (payloads) and was plotted as a continuation of the 3-fold serial dilution. […] Relative light units (RLUs) were measured on an Envision luminometer (PerkinElmer), and cell viability was expressed as a percentage of the untreated (100% viable) cells. IC50 values were determined using a four-parameter logistic equation over a 10-point dose response curve (GraphPad Prism).

C4-2 cells = assay: In vitro cytotoxicity assay in tumor lines (CellTiter-Glo 2.0), C4-2; assay type: cell-based, human
Method: as §1, §2

[2] = Homo sapiens, HCT-15, read-out: IC50 (nM) +v
[3] = Homo sapiens, HCT-15, read-out: IC50 (nM) −v

SMILES: CC[C@H](C)[C@@H]([C@@H](CC(=O)N1CCC[C@H]1[C@H](OC)[C@@H](C)C(=O)N[C@H](C)[C@@H](O)c1ccccc1)OC)N(C)C(=O)[C@@H](NC(=O)[C@@H](NC)C(C)C)C(C)C [MMAE] (H-[NMeV]V[Dil][Dolaproine]-X1)
- Ratio to MMAE +v (HCT-15; HCT-15, with verapamil): 1x
- IC50 (HCT-15; HCT-15, with verapamil, read-out: IC50 (nM) +v): 0.946 nM
- Ratio to MMAE −v (HCT-15; HCT-15, without verapamil): 1x
- IC50 (HCT-15; HCT-15, without verapamil, read-out: IC50 (nM) −v): 14.8 nM

SMILES: CC[C@@]1(O)C(=O)OCc2c1cc1n(c2=O)Cc2c-1nc1cc(F)c(C)c3c1c2[C@@H](NC(=O)COCNC(=O)CN)CC3 [P3]
- Ratio to MMAE +v (HCT-15; HCT-15, with verapamil): 23.426x
- Ratio to MMAE −v (HCT-15; HCT-15, without verapamil): 3.011x
- IC50 (HCT-15; [2]): 22.2 nM
- IC50 (HCT-15; [3]): 44.9 nM

SMILES: CC[C@@]1(O)C(=O)OCc2c1cc1n(c2=O)Cc2c-1nc1cc(F)c(C)c3c1c2[C@@H](N)CC3 [P1, Exatecan]
- Ratio to MMAE +v (HCT-15; HCT-15, with verapamil): 1.833x
- Ratio to MMAE −v (HCT-15; HCT-15, without verapamil): 0.087x
- IC50 (HCT-15; Homo sapiens, HCT-15, with verapamil, read-out: IC50 (nM) +v): 1.73 nM
- IC50 (HCT-15; Homo sapiens, HCT-15, without verapamil, read-out: IC50 (nM) −v): 1.29 nM

SMILES: CC[C@@]1(O)C(=O)OCc2c1cc1n(c2=O)Cc2c-1nc1cc(F)c(C)c3c1c2[C@@H](NC(=O)CO)CC3 [Dxd]
- NCI-H1975 Max % Kill (NCI-H1975 cells; Table 26 (first experiment)): 95.9%
- IC50 (NCI-H1975 cells; Table 26 (first experiment)): 8.91 nM
- NCI-H1975 Max % Kill (NCI-H1975 cells; Table 27 (second experiment)): 96.1%
- IC50 (NCI-H1975 cells; Table 27 (second experiment)): 11.8 nM
- IC50 [1]: 787 to 11800 pM
- SK-BR-3 Max % Kill (SK-BR-3 cells; Table 26 (first experiment)): 97.1%
- IC50 (SK-BR-3 cells; Table 26 (first experiment)): 0.787 nM
- SK-BR-3 Max % Kill (SK-BR-3 cells; Table 27 (second experiment)): 98.2%
- IC50 (SK-BR-3 cells; Table 27 (second experiment)): 1.56 nM
- Calu-3 Max % Kill (Calu-3 cells): 96.3%
- IC50 (Calu-3 cells; concentrations corrected for DAR): 2.14 nM
- IC50 (C4-2/STEAP2 KO cells; C4-2/STEAP2 KO cells, 6 days): 3.43 nM
- C4-2/STEAP2 KO Max % Kill (C4-2/STEAP2 KO cells; Table 28, six days): 88.9%
- IC50 (C4-2 cells; C4-2 cells, 6 days): 2.54 nM
- maximum % kill (C4-2 cells; C4-2 cells, 6 days): 81.7%
- C4-2 Max % Kill (C4-2 cells; Table 28, six days): 81.7%

SMILES: CC[C@@]1(O)C(=O)OCc2c1cc1n(c2=O)Cc2c-1nc1cc(F)c(C)c3c1c2[C@@H](NC(=O)CO)CC3 [P2, Dxd]
- IC50 (HCT-15; [2]): 2.65 nM
- IC50 (HCT-15; [3]): 7 nM
